According to patent US20240269298A1, “PHOSPHONYL DERIVATIVE, AND COMPOSITION AND PHARMACEUTICAL APPLICATION THEREOF” (XIZANG HAISCO PHARMACEUTICAL CO., LTD., priority 2021, published 2024):
Like-named read-outs stand apart in the source and are kept apart here.

Columns and labels:
[1] = tested on: NCI-H1975 (EGFR-L858R-T790M) cells; experiment: Inhibitory activity on proliferation of NCI-H1975 (EGFR-L858R-T790M) cells (CTG, 72 h); type: cell-based; conditions: Homo sapiens
Summary of the method: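 IC50 values come from S-shaped dose-survival fits of CTG signal expressed as % of vehicle. Compound exposure lasted 72 h at 37 °C with 0.1% DMSO; seeding was 3000 A431 cells/well in DMEM+10% FBS and 1000 NCI-H1975 cells/well in RPMI1640+10% FBS.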

A431 (EGFR-WT) cells = experiment: Inhibitory activity on proliferation of A431 (EGFR-WT) cells (CTG, 72 h); type: cell-based; conditions: Homo sapiens, A-431
Procedure: NCI-H1975 (EGFR-L858R-T790M) and A431 (EGFR-WT) cells were purchased from ATCC and cultured in an incubator at 37° C. with 5% CO2, and the culture mediums were RPMI1640+10% FBS and DMEM+10% FBS, respectively. On the first day, NCI-H1975 (EGFR-L858R-T790M) and A431 (EGFR-WT) cells in the logarithmic phase were collected, and viable cells were counted using an automatic cell analyzer (countstar). The cell suspensions were adjusted with the culture mediums and plated on a 96-well cell culture plate at 1000 cells/well for NCI-H1975 (EGFR-L858R-T790M) cells and at 3000 cells/well for A431 cells. The next day, the culture mediums were aspirated, and 90 μL of fresh culture mediums and 10 μL of the compounds at different concentrations were added to each well, wherein the final concentration of DMSO in each well was 0.1%. The plate was cultured in the incubator at 37° C. with 5% CO2 for 72 hours. After 72 hours of drug treatment, 50 μL of CTG solution (promega, G7572), which was already pre-melted and equilibrated to room temperature, was added to each well, and the mixtures were uniformly mixed for 2 min using a microplate shaker. The plate was placed at room temperature for 10 min, and then […] signal values were measured using a microplate reader (PHERAstar FSX).
Surviving cells % was calculated based on Vsample/Vvehicle control×100%, wherein Vsample was the readout of the drug-treated group, and Vvehicle control was the average value of the vehicle control group. Using the origin 9.2 software and nonlinear regression model, S-shaped dose-survival curves were plotted, and IC50 values were calculated.

[2] = read-out: IC50 (value in brackets)

Row | IC50 ([1]; read-out: IC50 (class symbol)) | IC50 [1, 2] | IC50 (A431 (EGFR-WT) cells) | SMILES
1 | < 100 nM | 55 nM | ≥ 10000 nM | COc1cc(N2CCN(C3CCN(CC4CCN(c5ccc6c(c5)C(=O)N(C5CCC(=O)NC5=O)C6=O)CC4)CC3)CC2)c(-c2cnn(C)c2)cc1Nc1ncc(Cl)c(Nc2ccc(-c3ccccc3)cc2P(C)(C)=O)n1 (stereo not shown) [Compound 40, 5-(4-((4-(4-(4-((5-chloro-4-((3-(dimethylphosphoryl)-[1,1′-biphenyl]-4-yl)amino)pyrimidin-2-yl)amino)-5-methoxy-2-(1-methyl-1H-pyrazol-4-yl)phenyl)piperazin-1-yl)piperidin-1-yl)methyl)piperidin-1-yl)-2-(2,6-dioxopiperidin-3-yl)isoindoline-1,3-dione]
2 | – | – | ≥ 10000 nM | COc1cc(N2CCN(c3ccc4c(c3)C(=O)N(C3CCC(=O)NC3=O)C4=O)CC2)c(-c2cnn(C)c2)cc1Nc1ncc(Cl)c(Nc2ccc(C3CC3)cc2P(C)(C)=O)n1 (stereo not shown) [Compound 167, 5-(4-(4-((5-chloro-4-((4-cyclopropyl-2-(dimethylphosphoryl)phenyl)amino)pyrimidin-2-yl)amino)-5-methoxy-2-(1-methyl-1H-pyrazol-4-yl)phenyl)piperazin-1-yl)-2-(2,6-dioxopiperidin-3-yl)isoindoline-1,3-dione]
3 | – | – | ≥ 10000 nM | COc1cc(N2CCC(N3CCN(c4ccc(N5CCC(=O)NC5=O)cc4)CC3)CC2)c(-c2cnn(C)c2)cc1Nc1ncc(Cl)c(Nc2ccc(C3CC3)cc2P(C)(C)=O)n1 [Compound 133, 1-(4-(4-(1-(4-((5-chloro-4-((4-cyclopropyl-2-(dimethylphosphoryl)phenyl)amino)pyrimidin-2-yl)amino)-5-methoxy-2-(1-methyl-1H-pyrazol-4-yl)phenyl)piperidin-4-yl)piperazin-1-yl)phenyl)dihydropyrimidine-2,4(1H,3H)-dione]

The next lines start with the compound.

Row | SMILES | IC50 ([1]; read-out: IC50 (class symbol)) | IC50 [1, 2] | IC50 (A431 (EGFR-WT) cells)
4 | COc1cc(N2CCC(N3CCC(CN4CCN(c5ccc6c(c5)C(=O)N(C5CCC(=O)NC5=O)C6=O)CC4)CC3)CC2)c(C2CC2)cc1Nc1ncc(Br)c(Nc2ccc3nccnc3c2P(C)(C)=O)n1 (stereo not shown) [Compound 24, 5-(4-((1′-(4-((5-bromo-4-((5-(dimethylphosphoryl)quinoxalin-6-yl)amino)pyrimidin-2-yl)amino)-2-cyclopropyl-5-methoxyphenyl)-[1,4′-bipiperidin]-4-yl)methyl)piperazin-1-yl)-2-(2,6-dioxopiperidin-3-yl)isoindoline-1,3-dione] | 100 to 500 nM | 163 nM | ≥ 10000 nM
5 | COc1cc(N2CCC(CN3CC4CN(c5ccc6c(c5)C(=O)N(C5CCC(=O)NC5=O)C6=O)CC4C3)CC2)c(C2CC2)cc1Nc1ncc(Br)c(Nc2ccc3nccnc3c2P(C)(C)=O)n1 (stereo not shown) [Compound 34, 5-(5-((1-(4-((5-bromo-4-((5-(dimethylphosphoryl)quinoxalin-6-yl)amino)pyrimidin-2-yl)amino)-2-cyclopropyl-5-methoxyphenyl)piperidin-4-yl)methyl)hexahydropyrrolo[3,4-c]pyrrol-2(1H)-yl)-2-(2,6-dioxopiperidin-3-yl)isoindoline-1,3-dione] | – | – | ≥ 10000 nM
6 | COc1cc(N2CCC(N3CCN(c4ccc(N5CCC(=O)NC5=O)cc4)CC3)CC2)c(-c2cnn(C)c2)cc1Nc1ncc(Cl)c(Nc2ccc(-c3ccccc3)cc2P(C)(C)=O)n1 [Compound 137, 1-(4-(4-(1-(4-((5-chloro-4-((3-(dimethylphosphoryl)-[1,1′-biphenyl]-4-yl)amino)pyrimidin-2-yl)amino)-5-methoxy-2-(1-methyl-1H-pyrazol-4-yl)phenyl)piperidin-4-yl)piperazin-1-yl)phenyl)dihydropyrimidine-2,4(1H,3H)-dione] | – | – | ≥ 10000 nM
